# Species on record: Rattus norvegicus
# Assay: DrugMatrix - Regimen: Daily Repeat
# Type: toxicity, organism-based, Sprague-Dawley
# Set-up: regimen Daily Repeat, gender Male, age 6-8 weeks
# Conditions: in vivo, po, route oral GAVAGE, […]; for ABSOLUTE BASOPHIL / ABSOLUTE EOSINOPHIL / ABSOLUTE LYMPHOCYTE / ABSOLUTE MONOCYTE / ABSOLUTE SEGMENTED NEUTROPHIL / BASOPHIL / EOSINOPHIL / ERYTHROCYTE COUNT / HEMATOCRIT / HEMOGLOBIN / LEUKOCYTE COUNT / LYMPHOCYTE / MEAN CORPUSCULAR HEMOGLOBIN / MEAN CORPUSCULAR HEMOGLOBIN CONCENTRATION / MEAN CORPUSCULAR VOLUME / MONOCYTE / NEUTROPHIL / NUCLEATED RED BLOOD CELLS / PLATELET COUNT: tissue Blood; for ALANINE AMINOTRANSFERASE / ALBUMIN / ALKALINE PHOSPHATASE / ASPARTATE AMINOTRANSFERASE / BLOOD UREA NITROGEN / CARBON DIOXIDE / CHLORIDE / CHOLESTEROL / CREATINE PHOSPHOKINASE / CREATININE / GLUCOSE / LACTATE DEHYDROGENASE / LIPASE / PHOSPHORUS / POTASSIUM / SODIUM / TOTAL BILIRUBIN / TOTAL PROTEIN / URIC ACID: tissue Plasma
# [1] = 0 mg/kg, 72 h, dose level Control, time 3 day
# [2] = 0 mg/kg, 120 h, dose level Control, time 5 day
# [3] = 13 mg/kg, 72 h, dose level Low, time 3 day
compound,measurement,setting,value
CN(C)c1nc(N(C)C)nc(N(C)C)n1 [ALTRETAMINE],ABSOLUTE BASOPHIL,[1],0 CELLS/uL
same,ABSOLUTE EOSINOPHIL,[1],70.67 CELLS/uL
same,ABSOLUTE LYMPHOCYTE,[1],12761.5 CELLS/uL
same,ABSOLUTE MONOCYTE,[1],214.17 CELLS/uL
same,ABSOLUTE SEGMENTED NEUTROPHIL,[1],987 CELLS/uL
same,BASOPHIL,[1],0%
same,EOSINOPHIL,[1],0.5%
same,ERYTHROCYTE COUNT,[1],5.61 x10E6/uL
same,HEMATOCRIT,[1],35.22%
same,HEMOGLOBIN,[1],13.57 G/DL
same,LEUKOCYTE COUNT,[1],14.03 x10E3/uL
same,LYMPHOCYTE,[1],91%
same,MEAN CORPUSCULAR HEMOGLOBIN,[1],24.25 pg
same,MEAN CORPUSCULAR HEMOGLOBIN CONCENTRATION,[1],38.52 G/DL
same,MEAN CORPUSCULAR VOLUME,[1],62.9 fL
same,MONOCYTE,[1],1.5%
same,NEUTROPHIL,[1],7%
same,NUCLEATED RED BLOOD CELLS,[1],0 /100WBC
same,PLATELET COUNT,[1],997.5 x10E3/uL
same,ALANINE AMINOTRANSFERASE,[1],66.5 u/L
same,ALBUMIN,[1],3.98 G/DL
same,ALKALINE PHOSPHATASE,[1],350 u/L
same,ASPARTATE AMINOTRANSFERASE,[1],83.83 u/L
same,BLOOD UREA NITROGEN,[1],12.33 mg/dL
same,CARBON DIOXIDE,[1],30.33 mmol/L
same,CHLORIDE,[1],100 MEQ/L
same,CHOLESTEROL,[1],75 mg/dL
same,CREATINE PHOSPHOKINASE,[1],200 u/L
same,CREATININE,[1],0.17 mg/dL
same,GLUCOSE,[1],170 mg/dL
same,LACTATE DEHYDROGENASE,[1],89.33 u/L
same,LIPASE,[1],10.33 u/L
same,PHOSPHORUS,[1],10.88 mg/dL
same,POTASSIUM,[1],6.13 MEQ/L
same,SODIUM,[1],140.53 MEQ/L
same,TOTAL BILIRUBIN,[1],0.2 mg/dL
same,TOTAL PROTEIN,[1],5.67 G/DL
same,URIC ACID,[1],1.6 mg/dL
same,ABSOLUTE BASOPHIL,[2],0 CELLS/uL
same,ABSOLUTE EOSINOPHIL,[2],0 CELLS/uL
same,ABSOLUTE LYMPHOCYTE,[2],9526.67 CELLS/uL
same,ABSOLUTE MONOCYTE,[2],134.17 CELLS/uL
same,ABSOLUTE SEGMENTED NEUTROPHIL,[2],922.5 CELLS/uL
same,BASOPHIL,[2],0%
same,EOSINOPHIL,[2],0%
same,ERYTHROCYTE COUNT,[2],5.58 x10E6/uL
same,HEMATOCRIT,[2],34.78%
same,HEMOGLOBIN,[2],13.5 G/DL
same,LEUKOCYTE COUNT,[2],10.58 x10E3/uL
same,LYMPHOCYTE,[2],90.17%
same,MEAN CORPUSCULAR HEMOGLOBIN,[2],24.27 pg
same,MEAN CORPUSCULAR HEMOGLOBIN CONCENTRATION,[2],38.82 G/DL
same,MEAN CORPUSCULAR VOLUME,[2],62.48 fL
same,MONOCYTE,[2],1.17%
same,NEUTROPHIL,[2],8.67%
same,NUCLEATED RED BLOOD CELLS,[2],0.17 /100WBC
same,PLATELET COUNT,[2],807.17 x10E3/uL
same,ALANINE AMINOTRANSFERASE,[2],66.83 u/L
same,ALBUMIN,[2],3.73 G/DL
same,ALKALINE PHOSPHATASE,[2],286.17 u/L
same,ASPARTATE AMINOTRANSFERASE,[2],142.33 u/L
same,BLOOD UREA NITROGEN,[2],14.67 mg/dL
same,CARBON DIOXIDE,[2],25.5 mmol/L
same,CHLORIDE,[2],89.17 MEQ/L
same,CHOLESTEROL,[2],75.17 mg/dL
same,CREATINE PHOSPHOKINASE,[2],310.67 u/L
same,CREATININE,[2],0.2 mg/dL
same,GLUCOSE,[2],153 mg/dL
same,LACTATE DEHYDROGENASE,[2],1594 u/L
same,LIPASE,[2],14.83 u/L
same,PHOSPHORUS,[2],11.28 mg/dL
same,POTASSIUM,[2],8.46 MEQ/L
same,SODIUM,[2],126.88 MEQ/L
same,TOTAL BILIRUBIN,[2],0.37 mg/dL
same,TOTAL PROTEIN,[2],5.53 G/DL
same,URIC ACID,[2],1.52 mg/dL
same,ABSOLUTE BASOPHIL,[3],0 CELLS/uL
same,ABSOLUTE EOSINOPHIL,[3],45.67 CELLS/uL
same,ABSOLUTE LYMPHOCYTE,[3],11954 CELLS/uL
same,ABSOLUTE MONOCYTE,[3],232.67 CELLS/uL
same,ABSOLUTE SEGMENTED NEUTROPHIL,[3],1567.67 CELLS/uL
same,BASOPHIL,[3],0%
same,EOSINOPHIL,[3],0.33%
same,ERYTHROCYTE COUNT,[3],5.86 x10E6/uL
same,HEMATOCRIT,[3],37.47%
same,HEMOGLOBIN,[3],14.6 G/DL
same,LEUKOCYTE COUNT,[3],13.8 x10E3/uL
same,LYMPHOCYTE,[3],86.67%
same,MEAN CORPUSCULAR HEMOGLOBIN,[3],24.97 pg
same,MEAN CORPUSCULAR HEMOGLOBIN CONCENTRATION,[3],38.97 G/DL
same,MEAN CORPUSCULAR VOLUME,[3],64 fL
same,MONOCYTE,[3],1.67%
same,NEUTROPHIL,[3],11.33%
same,NUCLEATED RED BLOOD CELLS,[3],0 /100WBC
same,PLATELET COUNT,[3],1022.33 x10E3/uL
same,ALANINE AMINOTRANSFERASE,[3],99.33 u/L
same,ALBUMIN,[3],4.03 G/DL
same,ALKALINE PHOSPHATASE,[3],392.33 u/L
same,ASPARTATE AMINOTRANSFERASE,[3],89.67 u/L
same,BLOOD UREA NITROGEN,[3],12.33 mg/dL
same,CARBON DIOXIDE,[3],29 mmol/L
same,CHLORIDE,[3],99 MEQ/L
same,CHOLESTEROL,[3],87.33 mg/dL
same,CREATINE PHOSPHOKINASE,[3],288 u/L
same,CREATININE,[3],0.18 mg/dL
same,GLUCOSE,[3],161 mg/dL
same,LACTATE DEHYDROGENASE,[3],193 u/L
same,LIPASE,[3],10.67 u/L
same,PHOSPHORUS,[3],11.53 mg/dL
same,POTASSIUM,[3],6.64 MEQ/L
same,SODIUM,[3],140.43 MEQ/L
same,TOTAL BILIRUBIN,[3],0.23 mg/dL
same,TOTAL PROTEIN,[3],5.83 G/DL
same,URIC ACID,[3],1.97 mg/dL
